The NIST ThermoML archive (doi:10.1016/j.jct.2011.09.003)

Legend:
[1] = for surface tension liquid-gas: digital tensiometer; for mass density: 101.33 kPa, Liquid, Vibrating tube method
[2] = xn = mol fraction of the nth substance listed; settings: 298.15 K; for surface tension liquid-gas: digital tensiometer; for mass density: 101 kPa, Liquid, Vibrating tube method

CCCC[n+]1ccccc1.O=[N+]([O-])[O-] [1-butylpyridinium nitrate]
[1]
Settings	mass density [kg/m3]	surface tension liquid-gas [mN/m]
293.15 K	1192.7	52.32
298.15 K	1188.5	51.53
303.15 K	1185.4	51.21
308.15 K	1181.2	50.97
313.15 K	1176.5	50.53
318.15 K	1173.5	49.99
323.15 K	1169.2	49.53
328.15 K	1165.6	49.3
333.15 K	1163.2	48.96
338.15 K	1159.4	48.64

CCCC[n+]1ccccc1.O=[N+]([O-])[O-] [1-butylpyridinium nitrate] + O
[2]
Settings	mass density [kg/m3]	surface tension liquid-gas [mN/m]
x1 = 0.0097	1016.3	43.71
x1 = 0.015	1024.4	40.11
x1 = 0.0359	1051.1	37.59
x1 = 0.0498	1067	37.5
x1 = 0.0593	1076.1	37.6
x1 = 0.0816	1092.6	38.02
x1 = 0.1136	1113.6	40.03
x1 = 0.2067	1144.7	41.69
x1 = 0.3247	1165.5	44.01
x1 = 0.447	1176.9	46.05
x1 = 0.633	1182.2	48.01
x1 = 0.7604	1185.3	49.25
x1 = 0.8226	1186.6	49.56
x1 = 0.9023	1188	50.78
x1 = 1	1188.5	51.53

O [water] + CCCC[n+]1ccccc1.O=[N+]([O-])[O-]
[2], x2 = 0
Settings	mass density [kg/m3]	surface tension liquid-gas [mN/m]
–	1000	72.03
